SMILES strings stand for the structures.

Results on 68 compounds are retold here after the Kinase Knowledgebase extract (Sharma et al. 2016).

The experiment deals with MAPK14 (human) (UniProt Q16539). Nature of the experiment: Inhibtion of MAPK14 Kinase Activity.
Chain of MAPK14 (human) (Q16539 whole entry, looked up): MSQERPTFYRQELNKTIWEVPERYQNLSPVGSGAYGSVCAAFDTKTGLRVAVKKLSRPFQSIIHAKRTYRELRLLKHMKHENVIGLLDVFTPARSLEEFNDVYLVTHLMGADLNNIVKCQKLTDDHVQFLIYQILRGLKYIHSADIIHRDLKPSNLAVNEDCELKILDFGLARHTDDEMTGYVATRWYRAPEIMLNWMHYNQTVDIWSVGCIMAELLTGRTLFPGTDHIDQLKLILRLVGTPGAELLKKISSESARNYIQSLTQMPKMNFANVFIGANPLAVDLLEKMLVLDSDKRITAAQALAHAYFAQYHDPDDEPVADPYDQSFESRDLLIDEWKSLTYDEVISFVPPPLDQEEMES

Consider `CC(C)C[C@H](NC1CCC(Oc2cc(F)c(-n3c(N)c(C(=O)c4ccc(F)cc4)ccc3=O)c(F)c2)CC1)C(=O)OC1CCCC1` (stereo partly drawn), for which the IC50 (in general, the concentration needed to halve the response being measured) was less than 100 nM.

As for `Nc1c(C(=O)c2ccc(F)cc2)ccc(=O)n1-c1ccc(OCCCN[C@H](C(=O)O)c2ccccc2)cc1`, the IC50 was less than 100 nM.

As for `Nc1c(C(=O)c2ccc(F)cc2F)ccc(=O)n1-c1ccc(OCCCN[C@H](C(=O)O)c2ccccc2)cc1`, the IC50 was less than 100 nM.

`Nc1c(C(=O)c2ccc(F)cc2)ccc(=O)n1-c1c(F)cc(OC2CCC(N[C@H](C(=O)OC3CCCC3)c3ccccc3)CC2)cc1F` (stereo partly drawn): the IC50 was less than 100 nM.

For `Nc1c(C(=O)c2ccc(F)cc2F)ccc(=O)n1-c1c(F)cc(OCCCN[C@@H](C(=O)O)c2ccccc2)cc1F`, the IC50 was less than 100 nM.

The compound `CC(C)C[C@H](NCCCOc1ccc(-n2c(N)c(C(=O)c3ccc(F)cc3F)ccc2=O)cc1)C(=O)OC(C)(C)C` had an IC50 of less than 100 nM.

As for `Nc1c(C(=O)c2ccc(F)cc2F)ccc(=O)n1-c1c(F)cc(OCCCN[C@H](C(=O)OC2CCCC2)C2CCCCC2)cc1F`, the IC50 is less than 100 nM.

The compound `CC(C)C[C@H](NCCCCCOc1cc(F)c(-n2c(N)c(C(=O)c3ccc(F)cc3F)ccc2=O)c(F)c1)C(=O)O` yielded an IC50 of less than 100 nM.

Regarding `Nc1c(C(=O)c2ccc(F)cc2)ccc(=O)n1-c1ccc(OCCCN[C@H](C(=O)OC2CCCC2)c2ccccc2)cc1`, the IC50 was less than 100 nM.

Compound `Nc1c(C(=O)c2ccc(F)cc2)ccc(=O)n1-c1c(F)cc(OC2CCC(N[C@H](C(=O)O)c3ccccc3)CC2)cc1F` (stereo partly drawn) gave an IC50 of less than 100 nM.

`CC(C)C[C@H](NCCCOc1cc(F)c(-n2c(N)c(C(=O)c3ccc(F)cc3F)ccc2=O)c(F)c1)C(=O)OC1CCCC1` gave an IC50 of less than 100 nM.

Turning to `CC(C)(C)OC(=O)[C@H](Cc1ccccc1)NCCCOc1cc(F)c(-n2c(N)c(C(=O)c3ccc(F)cc3F)ccc2=O)c(F)c1`, the IC50 was less than 100 nM.

Consider `Cc1cc(C(=O)c2ccc(=O)n(-c3ccc(OCCCN[C@@H](CC(C)C)C(=O)O)cc3)c2N)ccc1F`, for which the IC50 is less than 100 nM.

Take `Cc1cc(C(=O)c2ccc(=O)n(-c3c(F)cc(OCCCN[C@H](C(=O)O)c4ccccc4)cc3F)c2N)ccc1F`: the 50% inhibitory concentration (IC50) was less than 100 nM.

Compound `Nc1c(C(=O)c2ccc(F)cc2)ccc(=O)n1-c1c(F)cc(OCCCN[C@@H](Cc2ccccc2)C(=O)O)cc1F` gave an IC50 of less than 100 nM.

`CC(C)(C)OC(=O)[C@@H](NCCCOc1cc(F)c(-n2c(N)c(C(=O)c3ccc(F)cc3F)ccc2=O)c(F)c1)c1ccccc1` had an IC50 of less than 100 nM.

Regarding `O=C(c1ccc(F)cc1)c1ccc(=O)[nH]c1Nc1c(F)cc(CN[C@@H](Cc2ccccc2)C(=O)OC2CCCC2)cc1F`, the IC50 was less than 100 nM.

In turn, `Nc1c(C(=O)c2ccc(F)cc2F)ccc(=O)n1-c1c(F)cc(OCCCN[C@@H](Cc2ccccc2)C(=O)O)cc1F` came in with an IC50 of less than 100 nM.

Consider `Nc1c(C(=O)c2ccc(F)cc2F)ccc(=O)n1-c1c(F)cc(OCCCN[C@H](C(=O)O)C2CCCCC2)cc1F`, for which the IC50 is less than 100 nM.

Compound `Nc1c(C(=O)c2ccc(F)cc2F)ccc(=O)n1-c1ccc(CN[C@@H](Cc2ccccc2)C(=O)OC2CCCC2)cc1` showed an IC50 of less than 100 nM.

The compound `CC(C)C[C@H](NCc1cc(F)c(-n2c(N)c(C(=O)c3ccc(F)cc3F)ccc2=O)c(F)c1)C(=O)OC1CCCC1` gave an IC50 of less than 100 nM.

`Nc1c(C(=O)c2ccc(F)cc2F)ccc(=O)n1-c1ccc(CN[C@@H](Cc2ccccc2)C(=O)O)cc1` returned an IC50 of less than 100 nM.

For `Cc1cc(C(=O)c2ccc(=O)n(-c3c(F)cc(OCCCN[C@@H](CC(C)C)C(=O)OC4CCCC4)cc3F)c2N)ccc1F`, the IC50 was less than 100 nM.

For `CC(C)C[C@H](NCCCOc1cc(F)c(-n2c(N)c(C(=O)c3ccc(F)cc3)ccc2=O)c(F)c1)C(=O)O`, the IC50 was less than 100 nM.

As for `Cc1cc(C(=O)c2ccc(=O)n(-c3c(F)cc(OCCCN[C@@H](Cc4ccccc4)C(=O)OC4CCCC4)cc3F)c2N)ccc1F`, the IC50 was less than 100 nM.

The compound `Cc1cc(C(=O)c2ccc(=O)n(-c3c(F)cc(OCCCN[C@@H](Cc4ccccc4)C(=O)O)cc3F)c2N)ccc1F` registered an IC50 of less than 100 nM.

In the case of `CC(C)C[C@H](NC1CCC(Oc2cc(F)c(-n3c(N)c(C(=O)c4ccc(F)cc4)ccc3=O)c(F)c2)CC1)C(=O)O` (stereo partly drawn), the IC50 is less than 100 nM.

As to `NCC[C@H](NCCCOc1cc(F)c(-n2c(N)c(C(=O)c3ccc(F)cc3F)ccc2=O)c(F)c1)C(=O)OC1CCCC1`, the IC50 is less than 100 nM.

`Nc1c(C(=O)c2ccc(F)cc2F)ccc(=O)n1-c1c(F)cc(OCCCN[C@H](C(=O)OC2CC3CCC2C3)c2ccccc2)cc1F` (stereo partly drawn) showed an IC50 of less than 100 nM.

Compound `CC(C)C[C@H](NCCCOc1ccc(-n2c(N)c(C(=O)c3ccc(F)cc3)ccc2=O)cc1)C(=O)O` yielded an IC50 of less than 100 nM.

On to `CC(C)C[C@H](NCCCOc1cc(F)c(-n2c(N)c(C(=O)c3ccc(F)cc3F)ccc2=O)c(F)c1)C(=O)OC(C)(C)C`, for which the IC50 is less than 100 nM.

As for `Nc1c(C(=O)c2ccc(F)cc2F)ccc(=O)n1-c1ccc(CN[C@H](C(=O)O)c2ccccc2)cc1`, the IC50 is less than 100 nM.

`Cc1cc(C(=O)c2ccc(=O)n(-c3c(F)cc(OCCCN[C@H](C(=O)OC4CCCC4)c4ccccc4)cc3F)c2N)ccc1F` came in with an IC50 of less than 100 nM.

The compound `Nc1c(C(=O)c2ccc(F)cc2F)ccc(=O)n1-c1ccc(OCCCN[C@@H](Cc2ccccc2)C(=O)OC2CCCC2)cc1` showed an IC50 of less than 100 nM.

Regarding `CC(C)C[C@H](NCCCOc1ccc(-n2c(N)c(C(=O)c3ccc(F)cc3F)ccc2=O)cc1)C(=O)O`, the IC50 is less than 100 nM.

Turning to `Nc1c(C(=O)c2ccc(F)cc2F)ccc(=O)n1-c1ccc(CN[C@H](C(=O)OC2CCCC2)c2ccccc2)cc1`, the IC50 was less than 100 nM.

Compound `Cc1cc(C(=O)c2ccc(=O)n(-c3ccc(OCCCN[C@@H](Cc4ccccc4)C(=O)O)cc3)c2N)ccc1F` yielded an IC50 of less than 100 nM.

Regarding `CC(C)C[C@H](NCCCCCOc1cc(F)c(-n2c(N)c(C(=O)c3ccc(F)cc3F)ccc2=O)c(F)c1)C(=O)OC1CCCC1`, the IC50 was less than 100 nM.

The compound `Nc1c(C(=O)c2ccc(F)cc2)ccc(=O)n1-c1c(F)cc(OC2CCC(N[C@@H](Cc3ccccc3)C(=O)O)CC2)cc1F` (stereo partly drawn) registered an IC50 of less than 100 nM.

In turn, `Nc1c(C(=O)c2ccc(F)cc2F)ccc(=O)n1-c1c(F)cc(OCCCN[C@@H](C(=O)OC2CCCC2)c2ccccc2)cc1F` registered an IC50 of less than 100 nM.

With `CC(C)C[C@H](NCCCOc1cc(F)c(-n2c(N)c(C(=O)c3ccc(F)cc3F)ccc2=O)c(F)c1)C(=O)O`, the IC50 was less than 100 nM.

Turning to `CC(C)(C)OC(=O)[C@@H](NCCCOc1cc(F)c(-n2c(N)c(C(=O)c3ccc(F)cc3)ccc2=O)c(F)c1)c1ccccc1`, the half-maximal inhibitory concentration (IC50) was less than 100 nM.

Compound `Nc1c(C(=O)c2ccc(F)cc2)ccc(=O)n1-c1c(F)cc(CN[C@@H](Cc2ccccc2)C(=O)O)cc1F` gave an IC50 of less than 100 nM.

On to `CC(C)C[C@H](NCCc1ccc(-n2c(N)c(C(=O)c3ccc(F)cc3F)ccc2=O)cc1)C(=O)O`, for which the IC50 is less than 100 nM.

In the case of `CC(C)C[C@H](NCCCOc1cc(F)c(-n2c(N)c(C(=O)c3ccc(F)cc3F)ccc2=O)c(F)c1)C(=O)OCCN1CCOCC1`, the concentration for half-maximal inhibition (IC50) was less than 100 nM.

The compound `CC(C)C[C@H](NCc1ccc(-n2c(N)c(C(=O)c3ccc(F)cc3F)ccc2=O)cc1)C(=O)OC1CCCC1` came in with an IC50 of less than 100 nM.

With `Nc1c(C(=O)c2ccc(F)cc2)ccc(=O)n1-c1c(F)cc(OCCCN[C@H](C(=O)OC2CCCC2)c2ccccc2)cc1F`, the half-maximal inhibitory concentration (IC50) was less than 100 nM.

Regarding `Nc1c(C(=O)c2ccc(F)cc2)ccc(=O)n1-c1c(F)cc(CN[C@@H](Cc2ccccc2)C(=O)OC2CCCC2)cc1F`, the IC50 is less than 100 nM.

Consider `Cc1cc(C(=O)c2ccc(=O)n(-c3c(F)cc(OCCCN[C@@H](CC(C)C)C(=O)O)cc3F)c2N)ccc1F`, for which the IC50 was less than 100 nM.

As for `Nc1c(C(=O)c2ccc(F)cc2F)ccc(=O)n1-c1c(F)cc(OCCCN[C@H](C(=O)O)c2ccccc2)cc1F`, the IC50 was less than 100 nM.

Regarding `Nc1c(C(=O)c2ccc(F)cc2F)ccc(=O)n1-c1c(F)cc(OCCCN[C@H](C(=O)OC2Cc3ccccc3C2)c2ccccc2)cc1F`, the IC50 was less than 100 nM.

`Nc1c(C(=O)c2ccc(F)cc2)ccc(=O)n1-c1c(F)cc(OCCCN[C@H](C(=O)O)c2ccccc2)cc1F`: the IC50 is less than 100 nM.

Take `CC(C)C[C@@H](NCCCOc1cc(F)c(-n2c(N)c(C(=O)c3ccc(F)cc3F)ccc2=O)c(F)c1)C(=O)OC(C)(C)C`: the IC50 was less than 100 nM.

Turning to `CC(C)(C)OC(=O)[C@@H](NCCCOc1cc(F)c(-n2c(N)c(C(=O)c3ccc(F)cc3F)ccc2=O)c(F)c1)C1CCCCC1`, the IC50 is less than 100 nM.

For the compound `Nc1c(C(=O)c2ccc(F)cc2)ccc(=O)n1-c1ccc(OCCCN[C@@H](Cc2ccccc2)C(=O)OC2CCCC2)cc1`, the IC50 was less than 100 nM.

`Nc1c(C(=O)c2ccc(F)cc2)ccc(=O)n1-c1ccc(OCCCN[C@@H](Cc2ccccc2)C(=O)O)cc1` registered an IC50 of less than 100 nM.

As for `Nc1c(C(=O)c2ccc(F)cc2)ccc(=O)n1-c1c(F)cc(OCCCN[C@@H](Cc2ccccc2)C(=O)OC2CCCC2)cc1F`, the IC50 is less than 100 nM.

In turn, `CC(C)C[C@H](NCc1cc(F)c(-n2c(N)c(C(=O)c3ccc(F)cc3F)ccc2=O)c(F)c1)C(=O)O` returned a concentration for half-maximal inhibition (IC50) of less than 100 nM.

`CC(C)C[C@H](NCc1ccc(-n2c(N)c(C(=O)c3ccc(F)cc3F)ccc2=O)cc1)C(=O)O` had a half-inhibitory concentration (IC50) of less than 100 nM.

`Cc1cc(C(=O)c2ccc(=O)n(-c3ccc(OCCCN[C@@H](Cc4ccccc4)C(=O)OC4CCCC4)cc3)c2N)ccc1F`: the IC50 is less than 100 nM.

As to `CC(C)C[C@@H](NCCCOc1cc(F)c(-n2c(N)c(C(=O)c3ccc(F)cc3F)ccc2=O)c(F)c1)C(=O)OC1CCCC1`, the half-maximal inhibitory concentration (IC50) was less than 100 nM.

`CCOC(=O)[C@H](CC(C)C)NCCCOc1cc(F)c(-n2c(N)c(C(=O)c3ccc(F)cc3)ccc2=O)c(F)c1` gave an IC50 of less than 100 nM.

`Cc1cc(C(=O)c2ccc(=O)n(-c3ccc(CN[C@@H](Cc4ccccc4)C(=O)O)cc3)c2N)ccc1F` displayed an IC50 of less than 100 nM.

`CC(C)C[C@H](NCCCOc1ccc(-n2c(N)c(C(=O)c3ccc(F)cc3F)ccc2=O)cc1)C(=O)OC1CCCC1` gave an IC50 of less than 100 nM.

As for `Nc1c(C(=O)c2ccc(F)cc2)ccc(=O)n1-c1ccc(CCN[C@H](C(=O)O)c2ccccc2)cc1`, the IC50 was less than 100 nM.

Turning to `CC(C)C[C@H](NCCCCCOc1cc(F)c(-n2c(N)c(C(=O)c3ccc(F)cc3F)ccc2=O)c(F)c1)C(=O)OC(C)(C)C`, the IC50 was less than 100 nM.

On to `CC(C)C[C@H](NCCCOc1ccc(-n2c(N)c(C(=O)c3ccc(F)cc3)ccc2=O)cc1)C(=O)OC1CCCC1`, for which the IC50 is less than 100 nM.

`Nc1c(C(=O)c2ccc(F)cc2F)ccc(=O)n1-c1c(F)cc(OCCCN[C@H](C(=O)OC2CCCC2)c2ccccc2)cc1F` returned an IC50 of less than 100 nM.
